Assay results: patent EP1466597A1, “Use of dha esters to control or prevent cardiovascular diseases” (Clinigenetics, priority 2003, dated 2004)
Entries after “also recorded” stand apart in the source; their conditions may differ.

Key:
thromboxane A2 = details: described in EP 0 623 019; cited from earlier work
[1] = system: PMA stimulated THP1 cells; assay: Inhibition of lipoprotein (Cy3-oxLDL) uptake / lipid vesicle accumulation in macrophage foam cells; format: cell-based; details: PMA-differentiated THP1 cells, 2 hours with cy3 labeled oxLDL (1 µg/ml), fluorescence microscopy
Description: The THP-1 cell line from the European Collection of Cell Cultures, (ECACC, Wilshire, UK) were selected to generate a cellular model that mimics the differentiation and the growth of a foam cell. Typically, the cells (5.10^5 cells/ml) were maintained and grown in RPMI-1640, 10% FBS, 100 Unit/ml penicillin and 100 µg/ml streptomycin, […] L-Glutamine (Biowhittaker, Verviers , Belgium) in 37°C, 5% CO2 incubator. Medium was replaced every 2-3 days.
Human LDL were isolated from fresh plasma using a two steps KBr gradient ultracentrifugation (Leger et al., Free Rad. Res., 2002, 36, 127-142), LDL were dialyzed against NaCl 150 mM, sodium phosphate 10 mM, DTPA 10 µM (pH 7,4) for 24 hours. […]
Finally, lipoproteins were also characterized by their electrophoretic mobility. […] At the end of the labeling procedure, Cy3-OxLDL was extensively dialyzed and labeling efficiency was evaluated by measuring the absorbance at 548 nm.
To induce differentiation into macrophages, 1.5 10^5 cells/wells were plated in 96-well plates in culture medium supplemented with 10^-7 M of phorbol 12-myristate-13-acetate (Sigma) for 24 hours at 37°C, 5% CO2. […] After 2 washes with PBS, images of Cy-3 oxLDL uptake were captured using a fluorescence microscope coupled with a CCD camera. Each image was analyzed and quantified using QFluoro Software (Leica).

For CC/C=C\C/C=C\C/C=C\C/C=C\C/C=C\C/C=C\CCC(=O)O[C@H](CO)COP(=O)([O-])OCC[N+](C)(C)C [lyso-PCDHA, 1-lyso, 2-DHA-glycero-phosphocholine], the platelet aggregation inhibition (thromboxane A2) is given as “platelet aggregation inhibitors” and the “accumulation of lipid vesicles in macrophage / formation of foam cells” value [1] is given as “can block the accumulation of lipid rich vesicles in macrophage and prevent the formation of foam cell; also recorded: Dose dependent effect for the inhibition of lipid vesicles in macrophage cells; also recorded: can inhibit the accumulation of lipid vesicles in macrophage and block the formation of foam cells”.
